How the values were obtained:
[1] = test system: PBMCs from dogs immunised with CDV; experiment: T-cell proliferation after in vitro stimulation of PBMC with peptide pools, tested with autologous APCs and single peptides; type: cell-based, dog; conditions: for reaction with peripheral blood mononuclear cells: dogs of various breeds immunised with CDV
Experimental: An alternate strategy was used to increase the precursor frequency of specific T cells recognising the CDV peptides. Fresh PBMCs obtained from these hyperimmunised dogs were subjected to stimulation in vitro with pools of all 94 peptides for 30 minutes at 37° C. The cells were then washed to remove any excess peptides and cultured for 7 days. This population of T cells was then tested with autologous APCs with every single peptide as the antigen.
To confirm this observation, the same four dogs were bled again, five weeks after receiving the dose of killed virus. The PBMCs were stimulated in vitro with pools of either all 94 peptides or peptides 21-40 (because most of the activity was in this region) and after 7 days of culture the stimulated T cells were tested against individual peptides. Significant stimulatory indices were obtained with all peptides, confirming the above results. Four more dogs which received only one dose of 3 in 1 vaccine were tested using the in vitro stimulation method and all four dogs responded to the majority of peptides shown in Table 2.
Once again the same peptides and one additional peptide P32 were tested on cells from additional dogs.

[2] = test system: LHRH; experiment: Trial in BALB/c mice: antibody response to LHRH by ELISA; type: in vivo; conditions: BALB/c mice
Experimental: The canine vaccines with CDV-F derived Th-epitopes and LHRH used in Example 3 were also used to immunise BALB/c mice to investigate if the Th-epitopes would be functional in a different animal species.
All vaccines were formulated as for Example 3 except that they were diluted further so that 100 μl doses contained 2.7 nmoles of peptide and 10 μg of Iscomatrix™ and thiomersol as preservative.
Mice were vaccinated with 100 μl of the vaccine at the base of tail. Vaccinations were given at 0 and 4 weeks and animals bled at intervals after each vaccination from the retro-orbital plexus. Effective T-cell help was determined by measuring the antibody response to LHRH by ELISA.

[3] = Table 1, Beagle Foxhound (Dog #18), hyperimmunised, PBMC stimulated with pool of all 94 peptides, 7 days culture
[4] = Table 1, Beagle Foxhound (Dog #19)
[5] = Table 1, Beagle Foxhound (Dog #20)
[6] = Table 1, Beagle Foxhound (Dog #21)
[7] = Table 3, Kelpie Foxhound (Dog #125)
[8] = Table 2, Beagle Foxhound (Dog #72), one dose of 3 in 1 vaccine
[9] = Table 2, Beagle Foxhound (Dog #71), one dose of 3 in 1 vaccine

Sequence | Stimulatory index [1, 3] | Stimulatory index [1, 4] | Stimulatory index [1, 5] | Stimulatory index [1, 6] | Stimulatory index [1, 7] | Stimulatory index ([1]; Table 5, Border Collie) | Stimulatory index ([1]; Table 5, Fox Terrier) | Stimulatory index ([1]; Table 5, Grey hound) | Stimulatory index ([1]; Table 5, Kelpie Pointer) | Stimulatory index ([1]; Table 5, Poodle Shitzu) | Stimulatory index ([1]; Table 5, Terrier Cross) | other results
QSLRTSLEQSNKAIEEI (canine distemper virus; synthetic peptide from canine distemper virus fusion protein (CDV-F) designated peptide P38) | 2.8 | 6.7 | 3.6 | 4.2 | 2.2 | – | – | – | – | – | – | –
QPSTELEETRTSRARHS (canine distemper virus; synthetic peptide from canine distemper virus fusion protein (CDV-F) designated peptide P4) | 4.9 | <2 | 3.3 | 4.6 | – | 2 | <2 | 2 | 3.5 | 44 | 2 | –
RHSTTSAQRSTHYDPRT (canine distemper virus; synthetic peptide from canine distemper virus fusion protein (CDV-F) designated peptide P6) | 2.5 | <2 | 4 | 5.1 | – | 2 | <2 | <2 | <2 | 38 | <2 | –
TRSRKQTSHRLKNIPVH (canine distemper virus; synthetic peptide from canine distemper virus fusion protein (CDV-F) designated peptide P10) | 2.3 | <2 | 3.2 | 9.1 | – | 3 | 2.2 | 2 | 2.4 | 50 | 2.1 | –
DESSCVFVSESAICSQN (canine distemper virus; synthetic peptide from canine distemper virus fusion protein (CDV-F) designated peptide P64) | – | – | – | – | – | <2 | <2 | <2 | <2 | 50 | <2 | Stimulatory index ([1]; Table 4, Beagle Foxhound #19): 2.5; Stimulatory index ([1]; Table 4, Beagle Foxhound #20): 2.5; Stimulatory index ([1]; Table 4, Poodle Shitzu): 50.0; reaction with peripheral blood mononuclear cells [1]: react strongly
GIALHQSNLNAQAIQSL (canine distemper virus; synthetic peptide from canine distemper virus fusion protein (CDV-F) designated peptide P36) | 6.7 | 3.7 | 3.3 | 16 | 3 | – | – | – | – | – | – | –
FAGVVLAGVALGVATAA (canine distemper virus; synthetic peptide from canine distemper virus fusion protein (CDV-F) designated peptide P33) | – | – | – | – | 6 | 2 | <2 | <2 | 2 | <2 | <2 | Stimulatory index [1, 8]: 1.6
CIRGDTSSCARTLVSGT (canine distemper virus; synthetic peptide from canine distemper virus fusion protein (CDV-F) designated peptide P68) | 6.6 | <2 | <2 | 11.7 | 2.9 | <2 | <2 | <2 | <2 | 5 | <2 | –
SGRRQRRFAGVVLAGVA (canine distemper virus; synthetic peptide from canine distemper virus fusion protein (CDV-F) designated peptide P32) | – | – | – | – | – | <2 | <2 | 2 | <2 | <2 | <2 | –
EPINQALTLMTKNVKPL (canine distemper virus; synthetic peptide from canine distemper virus fusion protein (CDV-F) designated peptide P29) | 3.5 | 42 | 4.4 | <2 | 3.6 | <2 | <2 | <2 | <2 | 2 | 2 | Stimulatory index [1, 9]: 2; Stimulatory index ([1]; Table 2, Beagle Foxhound (Dog #73), one dose of 3 in 1 vaccine): 6
TELLSIFGPSLRDPISA (canine distemper virus; synthetic peptide from canine distemper virus fusion protein (CDV-F) designated peptide P47) | 3.3 | 85.7 | 2.9 | 1.9 | 2.7 | – | – | – | – | – | – | –
NLNAQAIQSLRTSLEQS (canine distemper virus; synthetic peptide from canine distemper virus fusion protein (CDV-F) designated peptide P37) | 6.9 | 10.9 | 8.2 | 26 | 2.5 | <2 | <2 | <2 | 2 | <2 | 2 | Stimulatory index [1, 8]: 1.7
TSTIINQSPDKLLTFIA (canine distemper virus; synthetic peptide from canine distemper virus fusion protein (CDV-F) designated peptide P74) | – | – | – | – | – | <2 | <2 | <2 | <2 | 4 | <2 | Stimulatory index ([1]; Table 4, Beagle Foxhound #20): 1.7; Stimulatory index ([1]; Table 4, Beagle Foxhound #21): 6.0; Stimulatory index ([1]; Table 4, Poodle Shitzu): 4.0; reaction with peripheral blood mononuclear cells [1]: react strongly
PRTSDRPVSYTMNRTRS (canine distemper virus; synthetic peptide from canine distemper virus fusion protein (CDV-F) designated peptide P8) | – | – | – | – | – | 2 | <2 | 2 | 2.8 | 100 | <2 | antibody titres to LHRH [2]: undetectable levels; Stimulatory index ([1]; Table 2, Beagle Foxhound (Dog #70), one dose of 3 in 1 vaccine): 2.2
YKIMTRPSHQYLVIKLI (canine distemper virus; synthetic peptide from canine distemper virus fusion protein (CDV-F) designated peptide P23) | – | – | – | – | 3.2 | – | – | – | – | – | – | –
KLLNSVLEPINQALTLM (canine distemper virus; synthetic peptide from canine distemper virus fusion protein (CDV-F) designated peptide P28) | – | – | – | – | 1.9 | – | – | – | – | – | – | Stimulatory index [1, 9]: 2
SHQYLVIKLIPNASLIE (canine distemper virus; synthetic peptide from canine distemper virus fusion protein (CDV-F) designated peptide P24) | 5.8 | 9.9 | 2.8 | 29 | – | – | – | – | – | – | – | Stimulatory index [1, 9]: 3.2; Stimulatory index [1, 8]: 2.2
IGTDNVHYKIMTRPSHQ (canine distemper virus; synthetic peptide from canine distemper virus fusion protein (CDV-F) designated peptide P22) | – | – | – | – | – | – | – | – | – | – | – | Stimulatory index [1, 8]: 2.6
GVALGVATAAQITAGIA [Peptide P34] | – | – | – | – | 2.1 | – | – | – | – | – | – | –
EQSNKAIEEIREATQET (canine distemper virus; synthetic peptide from canine distemper virus fusion protein (CDV-F) designated peptide P39) | – | – | – | – | 2.9 | – | – | – | – | – | – | –
